Consider two molecules from patent EP2326714B1, “METHOD FOR THE PRODUCTION OF A FEED ADDITIVE FOR THE OXYGEN-INDEPENDENT, ENZYMATIC DECOMPOSITION OF MYCOTOXINS, FEED ADDITIVE, AND USE THEREOF” (Erber Aktiengesellschaft, priority 2008, dated 2010).

The subject of data set [1] is CCCC[C@@H](C)[C@@H](OC(=O)C[C@@H](CC(=O)O)C(=O)O)[C@H](C[C@@H](C)C[C@H](O)CCCC[C@@H](O)C[C@H](O)[C@H](C)N)OC(=O)C[C@@H](CC(=O)O)C(=O)O. The data set can be described thus: Enzyme kinetics of fumonisin carboxylesterase (Michaelis-Menten, HPLC-MS/MS). It counts as biochemical, Sphingopyxis sp. How it is done:
(§1) Das fumD Gen (Sequenz ID-Nr. 8), welches eine Fumonisin-Carboxylesterase codiert, wurde kloniert und in Pichia pastoris unter Verwendung von Standardverfahren exprimiert. Das his-getaggte Enzym wurde rückgewonnen und aus der überstehenden Lösung der Kultur durch Affinitätschromatographie gereinigt. Die Enzymkonzentration wurde bestimmt und die enzymkinetischen Parameter wurden mit sieben unterschiedlichen Substratkonzentrationen im Bereich zwischen 50 µg bis 25 mg FB1 pro Liter und einer Enzymkonzentration von 0,33 ng/ml bestimmt. Die Reaktionen wurden in 20 mM Tris-Cl (pH 8,0) Puffer mit 0,1 mg/ml Rinderserumalbumin gepuffert und bei 30 °C inkubiert. Proben wurden nach 0, 30, 60 120 und 240 Minuten Inkubation genommen und durch HPLC-MS/MS analysiert. Fumonisin B1 (FB1) und hydrolysiertes Fumonisin B1 wurden quantifiziert basierend auf einer Kalibrierung mit den gereinigten Referenzsubstanzen und einem vollständig ^13C markierten, internen FB1 Standard.
(§2) Fig. 2 zeigt die Michaelis-Menten-Kurve für die Transformation von Fumonisin B1 (FB1) durch Fumonisin-Carboxylesterase FumD, welche bei einer Enzymkonzentration von 0,33 ng/ml in Tris-Cl-Puffer (pH 8,0) bestimmt wurde, wobei anfängliche Enzymgeschwindigkeiten gegen die Substratkonzentration aufgetragen wurden. Die Michaelis-Menten-Kurve zeigt einen Abfall bei höheren Substratkonzentrationen, da die Enzymgeschwindigkeit basierend auf dem Produkt, d.h. hydrolysierter FB1-Bildung berechnet wurde. Da hydrolysiertes FB1 aus FB1 in einer zweistufigen Reaktion über partiell hydrolysiertes FB1 mit lediglich einer Tricarballylsäure-Seitenkette, die zurückbehalten wurde, und einer Seitenkette ausgebildet wird, die abgespalten wurde, war die Endproduktbildung bei hohen Substratkonzentrationen verzögert. Die Michaelis-Menten-Konstante KM wurde als 0,90 µmol/l berechnet, was 650 ppb äquivalent ist, und die Umwandlungszahl war 900 pro Sekunde.

In data set [2] the target is T1, Fumonisin-Carboxylesterase FumD, Sequenz ID-Nr. 9 (fumD Gen Sequenz ID-Nr. 8), Sphingopyxis sp. Stamm DSM 16254, his-getaggt, in Pichia pastoris exprimiert (Sphingopyxis macrogoltabida, UniProt D2D3B6).
T1 construct: His tag; made in house; host or cells: Pichia pastoris (secreted, purified from the culture supernatant)
T1 sequence (D2D3B6 whole entry): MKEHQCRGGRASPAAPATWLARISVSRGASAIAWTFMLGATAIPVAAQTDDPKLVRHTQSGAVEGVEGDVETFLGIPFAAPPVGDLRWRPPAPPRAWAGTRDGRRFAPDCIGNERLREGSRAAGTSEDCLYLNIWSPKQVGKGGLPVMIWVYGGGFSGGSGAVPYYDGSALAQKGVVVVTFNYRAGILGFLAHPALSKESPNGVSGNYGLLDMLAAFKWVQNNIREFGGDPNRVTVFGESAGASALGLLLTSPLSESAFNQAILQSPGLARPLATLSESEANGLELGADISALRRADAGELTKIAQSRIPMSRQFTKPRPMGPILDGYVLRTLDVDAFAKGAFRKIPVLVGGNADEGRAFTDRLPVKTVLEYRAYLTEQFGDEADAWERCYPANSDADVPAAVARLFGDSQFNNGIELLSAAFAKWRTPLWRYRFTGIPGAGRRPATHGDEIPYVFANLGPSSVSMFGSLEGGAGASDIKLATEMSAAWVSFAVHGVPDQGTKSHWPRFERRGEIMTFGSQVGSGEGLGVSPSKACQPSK
Described as above. It is filed as biochemical. The note with it: substrate FB1; enzyme 0,33 ng/ml; Tris-Cl pH 8,0; 30 °C. As for the experimental part: as §1, §2

The test system of a further data set is Absetzferkel. In words: Feeding trial with piglets (fumonisin B1 contaminated feed, positive control). It is filed as in vivo, Ferkel (ÖHYB). The note with it: 4 - 5,5 ppm Fumonisin B1 in feed, no enzyme. From the text:
Der Versuch wurde in einem Versuchsstall mit 12 Buchten für jeweils 10 Tiere durchgeführt. Der Stall war ausgestattet mit Spaltenboden, Schalentränkern und einem computergesteuerten Fütterungssystem. Die Automaten waren entlang der Buchtenwände angeordnet. Das Stallklima wurde täglich automatisch aufgezeichnet und die Temperatur nach den Standardempfehlungen zur Ferkelaufzucht eingestellt.
120 gemischt-geschlechtliche Absetzferkel (Alter: ca. 4 Wochen, durchschnittliches Einstellgewicht 8,21 kg) wurden für diesen Versuch eingesetzt. Jedes Ferkel wurde mit einer Ohrmarke versehen und einzeln gewogen. Die 120 Ferkel wurden auf 12 Buchten zufällig verteilt. Alle Ferkel entstammten dem österreichischen Zuchtprogramm ÖHYB (= (Edelschwein x Landrasse) x Pietrain).
Direkt nach dem Absetzen wurden die Ferkel für 2 Tage mit einem Starterfutter gefüttert, nach dieser Eingewöhnungsphase erfolgte die Umstellung auf das Versuchsfutter. Die Fütterung erfolgte 2-phasig: Absetzphase Tag 1 - 14, Aufzuchtphase Tag 15 - 42. Das Versuchsfutter wurde buchtenindividuell über die Spotmix-Fütterungsanlage gemischt und je nach Anzahl der Ferkel, Gewichtsentwicklung und Futterverzehr zweimal täglich trocken zugeteilt. Wasser stand zur Aufnahme ad libitum zur Verfügung. Die 12 Buchten wurden in vier verschiedene Applikationsgruppen zu je drei Wiederholungen geteilt und erhielten die folgenden Einmischungen ins oben beschriebene Futter: […]

Consider “Fumonisin-Carboxylesterase FumD, Sequenz ID-Nr. 9 (fumD Gen Sequenz ID-Nr. 8), Sphingopyxis sp. Stamm DSM 16254, his-getaggt, in Pichia pastoris exprimiert (Sphingopyxis macrogoltabida)”, for which the Km in data set [1] (other: same KM expressed in ppb, pH 8.0, 30.0 °C) is given as 650 ppb; in data set [1] (other: substrate FB1, 50 µg to 25 mg per litre, enzyme 0,33 ng/ml, 20 mM Tris-Cl pH 8,0, 0,1 mg/ml BSA, 30 °C, rate based on formation of hydrolysed FB1) it was 0,90 µmol/l.

In data set [2], `CCCC[C@@H](C)[C@@H](OC(=O)C[C@@H](CC(=O)O)C(=O)O)[C@H](C[C@@H](C)C[C@H](O)CCCC[C@@H](O)C[C@H](O)[C@H](C)N)OC(=O)C[C@@H](CC(=O)O)C(=O)O` [Fumonisin B1] had a Umwandlungszahl of 900 pro Sekunde. For the same molecule, the Ausfälle in the data set on Absetzferkel (30 piglets, 42 days) came out at 1. Further, the “Endgewicht (Durchschnitt, kg)” value with Absetzferkel (30 piglets, 42 days, negative control 26,82) is recorded as 24,77 kg. Moreover, the “respiratorische Probleme” value in the data set with Absetzferkel (all other groups appeared healthy) is “bei fast der Hälfte der Tiere respiratorische Probleme beobachtet”.
